Test results taken from US20210395239A1 (Hoffmann-La Roche Inc., priority 2018, published 2021).

The molecules below were run against T1, hTLR9 (Homo sapiens, UniProt Q9NR96) (assay: HEK293-Blue-hTLR-9 cells assay (SEAP reporter, ODN2006 stimulation)). Settings: HEK293-Blue-hTLR9 cells, ODN2006, 20 hrs; read-out: HEK/hTLR9 IC50.
T1 sequence (Q9NR96 26-1032): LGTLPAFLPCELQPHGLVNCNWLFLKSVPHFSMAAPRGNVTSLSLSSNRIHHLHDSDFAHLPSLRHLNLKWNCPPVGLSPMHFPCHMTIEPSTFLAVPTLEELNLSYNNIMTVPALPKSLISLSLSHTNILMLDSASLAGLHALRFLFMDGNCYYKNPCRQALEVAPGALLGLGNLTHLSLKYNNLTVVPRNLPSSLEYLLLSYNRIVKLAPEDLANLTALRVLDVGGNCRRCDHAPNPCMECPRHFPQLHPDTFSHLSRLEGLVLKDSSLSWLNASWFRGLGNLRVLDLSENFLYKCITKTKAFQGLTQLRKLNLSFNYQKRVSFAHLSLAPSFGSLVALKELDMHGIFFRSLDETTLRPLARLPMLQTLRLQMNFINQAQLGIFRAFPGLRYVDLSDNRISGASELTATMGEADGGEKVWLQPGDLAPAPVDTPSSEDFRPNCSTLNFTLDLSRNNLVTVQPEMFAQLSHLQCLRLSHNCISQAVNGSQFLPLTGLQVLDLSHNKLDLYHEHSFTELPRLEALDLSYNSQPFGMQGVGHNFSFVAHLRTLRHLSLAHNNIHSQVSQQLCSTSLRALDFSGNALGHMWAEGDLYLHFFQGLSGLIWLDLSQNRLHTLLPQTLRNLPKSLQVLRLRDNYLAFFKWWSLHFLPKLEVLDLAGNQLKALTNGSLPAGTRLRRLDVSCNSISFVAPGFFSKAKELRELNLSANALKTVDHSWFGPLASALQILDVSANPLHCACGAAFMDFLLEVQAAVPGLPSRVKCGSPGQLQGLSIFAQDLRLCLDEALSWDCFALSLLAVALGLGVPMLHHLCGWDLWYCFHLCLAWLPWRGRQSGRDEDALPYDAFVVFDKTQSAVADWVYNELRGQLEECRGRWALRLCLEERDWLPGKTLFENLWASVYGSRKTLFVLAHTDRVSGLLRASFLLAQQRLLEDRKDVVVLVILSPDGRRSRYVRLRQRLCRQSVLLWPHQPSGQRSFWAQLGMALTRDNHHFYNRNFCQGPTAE
Assay type: cell-based
Design: host or cells: HEK293 (HEK-Blue hTLR9)
Method in brief: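 Antagonism read as lowered SEAP reporter absorbance (620–655 nm, QUANTI-Blue, 2 h, 37 °C) in supernatants. Before that, ODN2006-stimulated HEK293-Blue cells stably expressing human TLR9 were exposed to compound dilutions at 1% final DMSO for 20 h at 37 °C.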
For `C[C@@H]1CN(c2ccc(C#N)n3nccc23)C[C@H](CN2CC(c3ccc(N4CC(C)(N)C4)nc3)C2)O1` [Example 157, 4-[(2S,6R)-2-[[3-[6-(3-amino-3-methyl-azetidin-1-yl)-3-pyridyl]azetidin-1-yl]methyl]-6-methyl-morpholin-4-yl]pyrazolo[1,5-a]pyridine-7-carbonitrile], the IC50 was 31 nM. `C[C@@H]1CN(c2ccc(C#N)n3ncc(F)c23)C[C@H](CN2CC(c3ccc(N4CC(C)(N)C4)nc3)C2)O1` [Example 158, 4-[(2S,6R)-2-[[3-[6-(3-amino-3-methyl-azetidin-1-yl)-3-pyridyl]azetidin-1-yl]methyl]-6-methyl-morpholin-4-yl]-3-fluoro-pyrazolo[1,5-a]pyridine-7-carbonitrile] gave an IC50 of 41 nM. Molecule `[2H]c1ccc2c(N3C[C@H](CN4CC(c5cccc(N6CC(C)(N)C6)n5)C4)O[C@H](C)C3)ccc(C#N)c2n1` [Example 159, 5-[(2S,6R)-2-[[3-[6-(3-amino-3-methyl-azetidin-1-yl)-2-pyridyl]azetidin-1-yl]methyl]-6-methyl-morpholin-4-yl]-2-deuterio-quinoline-8-carbonitrile] has an IC50 of 100 nM. With `C[C@@H]1CN(c2ccc(C#N)n3ncc(F)c23)C[C@H](CN2CC(c3ccc(N4CC(C)(N)C4)cc3)C2)O1` [Example 160, 4-[(2S,6R)-2-[[3-[4-(3-amino-3-methyl-azetidin-1-yl)phenyl]azetidin-1-yl]methyl]-6-methyl-morpholin-4-yl]-3-fluoro-pyrazolo[1,5-a]pyridine-7-carbonitrile] the IC50 was 163 nM. `[2H]c1ccc2c(N3C[C@H](CN4CCN(c5ccc(N6CC7(CN(C)C7)C6)nc5)CC4)O[C@H](C)C3)ccc(C#N)c2n1` [Example 161, 2-deuterio-5-[(2R,6S)-2-methyl-6-[[4-[6-(6-methyl-2,6-diazaspiro[3.3]heptan-2-yl)-3-pyridyl]piperazin-1-yl]methyl]morpholin-4-yl]quinoline-8-carbonitrile] was tested, and the IC50 was 59 nM. `[2H]c1ccc2c(N3C[C@H](CN4CCN(c5ccc(N[C@H]6CNC[C@H]6F)nc5)CC4)O[C@H](C)C3)ccc(C#N)c2n1` [Example 162, 2-deuterio-5-[(2S,6R)-2-[[4-[6-[[(3S,4R)-4-fluoropyrrolidin-3-yl]amino]-3-pyridyl]piperazin-1-yl]methyl]-6-methyl-morpholin-4-yl]quinoline-8-carbonitrile] was tested, and the IC50 was 36 nM. With `C[C@@H]1CN(c2ccc(C#N)n3nccc23)C[C@H](CN2CC(c3ccc(N4CC(C)(N)C4)cc3)C2)O1` [Example 163, 4-[(2S,6R)-2-[[3-[4-(3-amino-3-methyl-azetidin-1-yl)phenyl]azetidin-1-yl]methyl]-6-methyl-morpholin-4-yl]pyrazolo[1,5-a]pyridine-7-carbonitrile] the IC50 was 101 nM. For `CO[C@@H]1CN(c2ccc(C3CN(C[C@H]4CN(c5ccc(C#N)n6ncc(F)c56)C[C@@H](C)O4)C3)cn2)C[C@H]1N` [Example 164, 4-[(2S,6R)-2-[[3-[6-[(3R,4R)-3-amino-4-methoxy-pyrrolidin-1-yl]-3-pyridyl]azetidin-1-yl]methyl]-6-methyl-morpholin-4-yl]-3-fluoro-pyrazolo[1,5-a]pyridine-7-carbonitrile], the IC50 was 86 nM. Work on `C[C@@H]1CN(c2ccc(C#N)n3ncc(F)c23)C[C@H](CN2CC(c3ccc(N4C[C@@H]5C[C@H]4CN5)nc3)C2)O1` [Example 165, 4-[(2S,6R)-2-[[3-[6-[(1S,4S)-2,5-diazabicyclo[2.2.1]heptan-2-yl]-3-pyridyl]azetidin-1-yl]methyl]-6-methyl-morpholin-4-yl]-3-fluoro-pyrazolo[1,5-a]pyridine-7-carbonitrile] yielded an IC50 of 108 nM. `CO[C@@H]1CN(c2ccc(N3CCN(C[C@H]4CN(c5ccc(C#N)n6ncc(F)c56)C[C@@H](C)O4)CC3)cn2)C[C@H]1N` [Example 166, 4-[(2S,6R)-2-[[4-[6-[(3R,4R)-3-amino-4-methoxy-pyrrolidin-1-yl]-3-pyridyl]piperazin-1-yl]methyl]-6-methyl-morpholin-4-yl]-3-fluoro-pyrazolo[1,5-a]pyridine-7-carbonitrile] was tested, and the IC50 was 46 nM.
